Measured values published in ChEMBL document CHEMBL3507680, “University of Dundee, Gates Library screen for HepG2 cell viability”.

Assay: Human HepG2 cell viability assay in 384 well format
Assay type: toxicity, cell-based
Set-up: dose 125 nL, time 70.5 hour; concentration not given beside the values
Conditions: HepG2 cells, read-out: Inhibition

Compound | cytotoxicity at 70.5 h [%]
CS(=O)(=O)N1CCC2(CC1)CC(OCC1CCOCC1)CO2 (configuration not stated) | -7.58
COc1ccc(C[C@H]2CN(c3nnc(C)s3)CC[C@H]2OC)cc1 | -10.2
c1cnn(CCNCc2cnc(N3CCCC3)nc2)c1 | -9.32
O=c1[nH]nc2c(N3CCOCC3)nccn12 | -11.6
Cc1nn(C)c2c(=O)n(C(C)C)c(NCCc3ccccc3)nc12 | 24.5
O=C(NCCCN1CCOCC1)c1ccn(COc2ccc(Br)cc2)n1 | 12.3
Cc1nn(C)c(N(C)C)c1CNCc1cccc(Cn2cccn2)c1 | 9.51
Cc1ccsc1C(=O)N1CCCc2c(c(=O)n(C)n2C)C1 | -11
CC(NC(=O)Cc1cccs1)c1nnc2n1CCCCC2 (configuration not stated) | -23.9
Cc1cc(C)n(C2CN(CC(=O)N(C)Cc3ccc(C)o3)C2)n1 | -9.43
Cc1nn(C)c(N(C)C)c1CNCc1cccc(Cn2ccnc2)c1 | 3.64
Cc1nc(N2CCCC2)nc2c1CCN(C(=O)NC(C)C)CC2 | 30.9
CN(Cc1noc(C2CC2)n1)C1CCN(Cc2ccncc2)C1 (configuration not stated) | -9.86
CC(=O)NC(c1cc(F)ccc1F)C1CC1 (configuration not stated) | -3.82
Cc1cnn(CCNCc2ccccc2OCc2ccccn2)c1 | -0.163
COc1ccc(C2CCCCCN2CCCNS(C)(=O)=O)cc1 (configuration not stated) | -6.03
CC(C)CS(=O)(=O)N1CCC2(CN(c3ccsc3)C(=O)CN2C)C1 (configuration not stated) | -111
CC(OCC(F)(F)F)C(=O)Nc1ccc(-n2cncn2)nc1 (configuration not stated) | -12.6
COc1nccnc1N1CCC(C(=O)O)(n2ccc(C(C)(C)C)n2)CC1 | -10.8
O=C(c1ccc(Cl)s1)N1CCC2(CNS(=O)(=O)c3cnccc3O2)C1 (configuration not stated) | 19.5
N#Cc1ccnc(N2CCN(C(=O)Cc3ccc4c(c3)CCO4)CC2)c1 | -7.76
c1ccc2oc(NC3CCCN(Cc4noc(C5CC5)n4)C3)nc2c1 (configuration not stated) | -10.4
CC(C)N(C)Cc1cnc2n1CCN(C(=O)NC1CCCC1)C2 | -9.47

Compound | cytotoxicity at 70.5 h [%]
Cc1nc(C(=O)N(Cc2c(C)nn(C)c2C)C(C)C)cs1 | -0.883
CCc1cc(C(=O)N2CCC(O)(Cn3ccc4ccncc43)CC2)no1 | -5.47
CC(=O)N1CCN(CC(C)(O)c2cccc(C(F)(F)F)c2)CC1 (configuration not stated) | -8.81
O=C1NC(c2cnc(C3CCC3)s2)Nc2ccccc21 (configuration not stated) | -9.55
COc1cccc2c1OCC(C(=O)N1CCN(C3CCSCC3)CC1)C2 (configuration not stated) | -7.23
Cc1cccc2c1nc(COCC(=O)O)n2-c1cnc(N)cn1 | -4.53
CC(=O)NCCNC(=O)CN1CCCC1c1c(C)nn(C)c1C (configuration not stated) | 25.7
Cc1nn(C)c(Cl)c1C1CCCN1c1ncnc2sccc12 (configuration not stated) | -1.91
O=C(c1ccccn1)N1C[C@@H]2CC[C@H](C1)N(C(=O)CCc1cccs1)C2 | -5.4
FC(F)(F)Oc1ccc(-c2c[nH]c([C@@H]3COCCN3)n2)cc1 | -3.01
CC(C)C1CN(S(=O)(=O)Cc2cccc(C#N)c2)CCS1 (configuration not stated) | -9.85
Cc1cccc(NC(=O)C2(n3cnnn3)CCCCC2)n1 | -26.9
CC1(C(=O)NC2CCCC2)CN(c2cnccn2)CCO1 (configuration not stated) | -13.6
CN(Cc1nnc2n1CCC2)S(=O)(=O)c1cc(Br)ccc1Br | -13.1
CN(C)C(=O)CS(=O)(=O)Cc1ccn(-c2cccc(F)c2)n1 | -3.31
CCc1ccc(CN2Cc3nccn3CC(CN3CCOCC3)C2)o1 (configuration not stated) | -5.92
COc1ccc(-n2nc(C(C)C)nc2COC(C)C)cc1 | 20.2
CCCc1noc(CN2CCC(N(C)Cc3nnc(C4CC4)o3)C2)n1 (configuration not stated) | 4.17
CCc1nc(CN(C)C(=O)c2cc(CN(CC)CC)c(CC)o2)no1 | -11.7
CC(NC(=O)CNc1cc2c(cc1Cl)NC(=O)CO2)c1ccco1 (configuration not stated) | 14.6
Cc1ccc(-n2cc(CN3CCN(C)[C@@H]4CS(=O)(=O)C[C@@H]43)cn2)cc1 | -5.8
CNC(=O)[C@@H]1CCO[C@@H]2CCN(C3CCOCC3)C[C@@H]21 | -0.345
CC(C)CN1C(=O)C[C@@H]2[C@@H]1CCN2Cc1cccc(C#N)c1 | 2.48

Compound | cytotoxicity at 70.5 h [%]
CC(C)N1CCCC1c1cc(CCO)[nH]n1 (configuration not stated) | -9.45
Cn1nc(C2CCCNC2)c2c(C(=O)NC3CC3)cc(C3CC3)nc21 (configuration not stated) | 13.4
CCC(C)NC(=O)c1coc(COc2cccc(F)c2)n1 (configuration not stated) | -3.12
COCC(=O)N(Cc1ccc2[nH]ccc2c1)C1CC1 | -25.2
CC(=O)N1CCN(Cc2cccs2)CC2(CC(=O)N(C)C2)C1 (configuration not stated) | -9.26
CC(C)(CN1CCC2(CCNCC2)CC1)N1CCOCC1 | -3.64
COc1cc(C2CC(=O)NCc3nc4sccn4c32)cc(OC)c1O (configuration not stated) | -13.6
COc1ccccc1CNC(=O)CNCCn1cc(C)cn1 | -13.5
CCC(CNc1ncnc2oc(C)nc12)Cc1ccccc1 (configuration not stated) | -1.88
CN(Cc1cccc(C#N)c1)Cc1nc2c(cnn2C)c(=O)[nH]1 | -19
CC(=O)c1cccc(NC(=O)Cn2cc(-c3ccccc3)ncc2=O)c1 | -6.47
CN(Cc1nnc2n1CCC2)S(=O)(=O)c1ccc(Br)cc1Cl | -4.12
CNc1nc(N2C[C@H](NC(=O)CCOC)[C@@H](C3CC3)C2)nc2c1CCC2 | -15.7
Cc1ccc(C(NCC(=O)N2CCNC(=O)C2)C(F)(F)F)cc1 (configuration not stated) | -113
CC(=O)N1CCN(Cc2cccc3c2sc2ccccc23)CC(O)C1 (configuration not stated) | -5.85
O=C(O)C1CCN(c2ccc(Sc3ccc(Br)cc3)nn2)CC1 | 26.1
CC(C)(C)C(=O)N1CCC(COCc2ccccc2)C1 (configuration not stated) | -3.49
Cc1nccn1-c1cccc(C2CCCN(C3CCCCC3)C2)n1 (configuration not stated) | 2.4
N#Cc1ccsc1NC(=O)CN1CCn2c(nnc2C2CC2)C1 | -6.74
Fc1cnc(N2CCCC3(CN(Cc4cccs4)CCO3)C2)nc1 (configuration not stated) | 2.35
Cc1nn(C)c(C)c1CCC(=O)OCC(=O)N1CCc2sccc2C1 | 20.5
CC1CCN(C(=O)c2cnc3cc(C(=O)N(C)C)n(C)c3c2)CC1 | 6.93
Cc1cccn2cc(CNS(=O)(=O)N3CCOCC3)nc12 | -5.24

Compound | cytotoxicity at 70.5 h [%]
Cc1nc(C(C)C)sc1C(=O)N(C)Cc1cnn(C)c1 | 14.2
CCN(C)C1COC2(CCN(C(=O)c3cccc(Cl)c3)CC2)C1 (configuration not stated) | -6.18
Cc1cc(C(=O)N(CC2CCCO2)c2ccncc2)c(C)o1 (configuration not stated) | -9.47
CC(C)n1c(=O)c2ccccc2n(CCCN(C)C)c1=O | -12.5
CC(C(=O)O)N1CCc2onc(-c3ccc4c(c3)OCO4)c2C1 (configuration not stated) | -3.84
CC(C)S(=O)(=O)NCC1CCCN(C(=O)c2ccc3c(c2)OCCO3)C1 (configuration not stated) | -1.13
CC(C)NC(=O)CNC(=O)OC(C)(C)C | -13
COc1ccc2nc(CNC(=O)c3cc(C(C)C)no3)[nH]c2c1 | 39.1
CNC(=O)[C@@H]1C[C@@H](NC(=O)Cc2nonc2C)CN1Cc1sccc1C | 1.29
Cn1ccnc1C(=O)N1CCCC1c1ccc(C(=O)N2CCOCC2)s1 (configuration not stated) | -2.53
O=C(CCc1nc2cccnc2[nH]1)NCc1ccncc1 | -19.4
O=C(c1cc(-n2cccn2)ccc1Cl)N1CCC(N2CCCC2=O)CC1 | -9.31
Cc1ccccc1C1CN(c2cnn(C)c(=O)c2Cl)CCO1 (configuration not stated) | -1.35
Cc1nn(C)c(C)c1CC(=O)NCc1cccnc1OC1CCCC1 | -3.95
CC(C)(C)OC(=O)NCCNC(=O)c1ccc2cc[nH]c2c1 | 0.498
CN(C)CCCNC(=O)c1ccccc1NC(=O)c1ccccc1Cl | 22.1
CC(C)C(=O)N1CCC[C@]2(C(=O)N(C)C)CN(c3ccccn3)C[C@@H]2C1 | 11.4
CCN(Cc1ccncc1)C(=O)c1cc(C)c(C)c(S(N)(=O)=O)c1 | -2.98
Cc1noc(C)c1C1CCCN1CCC(=O)N1CCc2ccccc2C1 (configuration not stated) | -13.3
CCS(=O)(=O)N1CCN(c2cc(-n3cnc(C)c3C)nc(C)n2)CC1 | -2.19
CSC(C)C(=O)NCCCc1cc(N)n(-c2ccccc2)n1 (configuration not stated) | 1.73
CC(C)(C)c1noc(CN2CCCc3cc(OC(F)(F)F)ccc32)n1 | -2.73
O=C(Nc1ccncc1)N(CCO)Cc1ccsc1 | -20

Compound | cytotoxicity at 70.5 h [%]
CC(C)Oc1ccccc1C(=O)NCCc1nncn1C | -6.83
Cn1ncc2cnn(CC(O)COc3cccc4[nH]ccc34)c2c1=O (configuration not stated) | 39.5
O=C(NCC1CC1)[C@H]1C[C@H]2OCC[C@H]2N(CCc2ccccc2)C1 | -1.31
Cc1nn(C)c(C)c1CCC(=O)N1CC(c2cccnc2)C1 | 0.0861
CC(C)NC(=O)c1sc2ccccc2c1[C@H]1CC[C@H](CN)CC1 | 38.7
CCC(CC)NC(=O)CN1CCN(C(=O)N(C)C)CC1 | -0.0942
CCN1C[C@@H]2[C@@H](OC)CCN(C(=O)c3cc(C)nn3CC)[C@@H]2C1 | 8.5
O=C(NCC1CC1)C1CN(C(=O)c2cccs2)CC12CCOCC2 (configuration not stated) | -13.2
Cc1cccc(C(=O)NCC2CCS(=O)(=O)C2)n1 (configuration not stated) | -1.5
Cc1cc(N2CCN(CC(=O)N(C)C)CC2)nc(-c2ccncc2)n1 | 27.8
Cc1nc(C(=O)N2CCOC(Cc3ccccc3)C2)co1 (configuration not stated) | 23
O=C(Nc1ccccc1)[C@H]1O[C@H](CCN2CCCCC2)CC[C@@H]1O | -3.54
Cc1nc(C)c(CNC(=O)N2CCN(c3ccc(Cl)cn3)CC2)s1 | -3.03
Clc1ccc(CN2CCCC2Cn2cncn2)c2ncccc12 (configuration not stated) | -2.37
CCN(Cc1cc(Br)ccc1F)C(=O)C(C)NC(N)=O (configuration not stated) | -19.1
COC(=O)C(NC(=O)C1CCC1)c1cc(F)ccc1F (configuration not stated) | -7.83
CC1CN(CC(=O)NC(=O)NCc2ccccc2)CCO1 (configuration not stated) | 7.19
CC(C)COc1ccccc1CN(C)C(=O)c1cc(=O)[nH]c(=O)[nH]1 | -8.79
CC1CCN(c2ncc3c(n2)CN(Cc2cccc(F)c2)C3=O)CC1 | -0.149
CCC(C)NC(=O)Cn1ccc2c(C)nn(CC)c2c1=O (configuration not stated) | 30.5
